Measured values published in paper PMC4191963, “DNA Binding Properties of the Actin-Related Protein Arp8 and Its Role in DNA Repair” (PLoS ONE, 2014).

Key:
human Arp8 [1] = molecular target: T1, human Arp8 (Homo sapiens, UniProt Q9H981); experiment: agarose gel shift, loss of dsDNA binding; conditions: 1 mM MgCl2, pH 7.5, 37 °C, phiX174 dsDNA
T1 construct: gene ACTR8; full length, N-terminal His6 tag removed with PreScission protease, expressed in E. coli

human Arp8 [2] = molecular target: T2, human Arp8 (Homo sapiens, UniProt Q9H981, E266A); experiment: agarose gel shift, loss of dsDNA binding; conditions: 1 mM ATP, 1 mM MgCl2, pH 7.5, 37 °C, phiX174 circular dsDNA; ATP-binding pocket
T2 construct: gene ACTR8; full length, N-terminal His6 tag removed with PreScission protease, expressed in E. coli

Arp8 = Arp8 (Homo sapiens, UniProt Q9H981 1-624); experiment: competition EMSA (PAGE); 3 µM each of ssDNA, dsDNA, 3'-overhang; 250 mM NaCl; highest apparent affinity; 20 mM HEPES-NaOH pH 7.5, 160 mM NaCl (250 mM in oligonucleotide competition), 1 mM MgCl2, 1 mM DTT, 0.1 mg/ml BSA, 8% glycerol (not listed for competition), +/- 1 mM ATP or ADP, 37 C 15 min; conditions: protein: recombinant; tags: His6 (N-terminal) removed by PreScission; single-stranded
Sequence of Arp8 (Q9H981 whole entry): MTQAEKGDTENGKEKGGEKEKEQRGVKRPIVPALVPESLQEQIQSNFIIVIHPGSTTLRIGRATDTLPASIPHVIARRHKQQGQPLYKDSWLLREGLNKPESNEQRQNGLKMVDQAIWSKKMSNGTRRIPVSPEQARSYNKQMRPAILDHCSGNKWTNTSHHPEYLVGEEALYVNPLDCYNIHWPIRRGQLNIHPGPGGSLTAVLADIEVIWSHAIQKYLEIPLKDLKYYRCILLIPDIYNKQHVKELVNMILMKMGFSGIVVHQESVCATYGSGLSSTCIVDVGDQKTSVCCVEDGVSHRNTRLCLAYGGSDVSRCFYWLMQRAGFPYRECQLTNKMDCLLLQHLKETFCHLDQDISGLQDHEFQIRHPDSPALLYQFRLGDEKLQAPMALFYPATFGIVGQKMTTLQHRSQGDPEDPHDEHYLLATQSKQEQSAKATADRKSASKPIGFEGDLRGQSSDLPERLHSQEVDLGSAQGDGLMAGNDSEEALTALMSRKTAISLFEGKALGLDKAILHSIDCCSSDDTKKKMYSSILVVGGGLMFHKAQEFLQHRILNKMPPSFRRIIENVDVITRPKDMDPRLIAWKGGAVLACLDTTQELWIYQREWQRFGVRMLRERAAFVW

T1 sequence (Q9H981 whole entry): as above
T2 sequence (Q9H981 whole entry E266A): as the sequence (Q9H981 whole entry) above, with E266A counted along it

## Nc1ncnc2c1ncn2[C@@H]1O[C@H](COP(=O)(O)OP(=O)(O)OP(=O)(O)O)[C@@H](O)[C@H]1O [ATP]
Human Arp8 [1]; 1 mM ATP, ATP-binding pocket
  agarose gel shift, loss of dsDNA binding: Addition of ATP to the binding assay mixture significantly decreased the binding of Arp8
Human Arp8 [2]
  agarose gel shift, loss of dsDNA binding: ATP only partially inhibited the DNA binding activity of the Arp8 E266A mutant

## Nc1ncnc2c1ncn2[C@@H]1O[C@H](COP(=O)(O)OP(=O)(O)O)[C@@H](O)[C@H]1O [ADP]
Human Arp8 [1]; 1 mM ADP
  agarose gel shift, loss of dsDNA binding: addition of ADP only slightly decreased the binding of Arp8 to dsDNAs

B1: a3 ssDNA (ssDNA)
DNA: CCTCGATCCTACCAACCAGATGACGCGCTGCTACGTGCTACCGGAAGTCG
Arp8
  binding result: binds
